Data published in ChEMBL document CHEMBL1201862, “PubChem BioAssay data set” (2004).
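Dose response: 5 concentrations. Exposure: 48 h. Format: 96-well plates. Endpoint: linear interpolation; highest concentration if not reached. The concentration for 50% growth inhibition is given as GI50.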 The source made the active and inactive calls. Rule as the data show it: active = GI50 up to about 1.1 µM and inactive = higher.

Experiments:
Assay in all cases: inhibition of tumour cell growth, NCI panel, 48 h
[1] = tested on: COLO 205
[2] = tested on: LOX IMVI
[3] = tested on: SK-OV-3
[4] = tested on: HT-29
[5] = tested on: Hs-578T
[6] = tested on: MDA-MB-231
[7] = tested on: KM12
[8] = tested on: SF-268
[9] = tested on: UACC-257
[10] = tested on: SW-620
[11] = tested on: TK-10
[12] = tested on: SNB-75
[13] = tested on: U-251
[14] = tested on: ACHN
[15] = tested on: M14
[16] = tested on: HOP-92
[17] = tested on: NCI/ADR-RES
[18] = tested on: A498
[19] = tested on: OVCAR-4
[20] = tested on: HOP-62

Measured: GI50

N#Cc1c2c([nH]c(=O)c1C#N)CCCC2
inactive: [1] > 100 µM | [2] > 100 µM | [3] > 100 µM | [4] > 100 µM | [5] > 100 µM | [6] > 100 µM | [7] > 100 µM | [8] > 100 µM | [9] > 100 µM | [10] > 100 µM | [11] > 100 µM | [12] 82.8 µM | [13] > 100 µM | [14] > 100 µM | [15] > 100 µM | [16] 79.1 µM | [17] > 100 µM | [18] > 100 µM

N#Cc1ccc(/C=N/NC(=O)CSCC(=O)N/N=C/c2ccc(C#N)cc2)cc1
inactive: [1] > 100 µM | [3] > 100 µM | [4] > 100 µM | [5] > 100 µM | [6] 29.1 µM | [7] > 100 µM | [8] > 100 µM | [9] > 100 µM | [10] > 100 µM | [11] 56 µM | [12] 26.3 µM | [13] 48.1 µM | [19] > 100 µM | [14] > 100 µM | [15] > 100 µM | [20] > 100 µM | [16] > 100 µM | [17] > 100 µM | [18] > 100 µM

O=C1c2ccccc2CCC1C(O)(C(F)(F)F)C(F)(F)F (stereo not given)
inactive: [1] > 100 µM | [2] > 100 µM | [3] > 100 µM | [4] > 100 µM | [5] > 100 µM | [6] > 100 µM | [7] > 100 µM | [9] > 100 µM | [10] > 100 µM | [11] > 100 µM | [12] 26.2 µM | [13] > 100 µM | [19] > 100 µM | [14] > 100 µM | [15] > 100 µM | [16] > 100 µM | [17] > 100 µM | [18] > 100 µM

Cn1c(=O)c2c(nc3sc4nc5ccccc5nc4n32)n(C)c1=O
inactive: [1] > 100 µM | [2] 92.3 µM | [3] > 100 µM | [4] > 100 µM | [5] > 100 µM | [6] > 100 µM | [7] > 100 µM | [8] > 100 µM | [9] > 100 µM | [11] > 100 µM | [12] 34.8 µM | [13] > 100 µM | [14] > 100 µM | [15] > 100 µM | [16] > 100 µM | [17] > 100 µM | [18] > 100 µM

C=C1C[C@@H]2O[C@H]3[C@H]4[C@@H](C[C@@H](C)[C@@H](OC(C)=O)[C@H]42)[C@@H](C)CO[C@@]3(C)[C@H](OC(=O)CCCCCCC)C[C@H]1O
inactive: [1] 16.4 µM | [2] 13.2 µM | [4] 20.1 µM | [5] 14.4 µM | [6] 13.8 µM | [7] 16.7 µM | [8] 16.1 µM | [9] 16.7 µM | [10] 21.4 µM | [11] 17.2 µM | [12] 16.7 µM | [13] 16.9 µM | [19] 12.8 µM | [14] 20.7 µM | [15] 20 µM | [20] 17.4 µM | [16] 15.2 µM | [17] 15.9 µM | [18] 16.2 µM

Cc1ccc2c(c1)-c1nc(N)c(C#N)c(-c3ccccc3)c1CCS2(=O)=O
inactive: [1] > 100 µM | [2] > 100 µM | [4] > 100 µM | [5] 20.8 µM | [6] 37 µM | [7] > 100 µM | [8] 46.5 µM | [9] 44.9 µM | [10] > 100 µM | [11] 23.7 µM | [12] 24.4 µM | [13] 32.5 µM | [19] 16.7 µM | [14] 38.5 µM | [15] > 100 µM | [20] 30.5 µM | [16] 26.4 µM | [17] 38.5 µM | [18] 28.8 µM
